# Experimental data as given in PubChem BioAssay AID328 (DTP/NCI, 2004).
# Where “and” joins values, the source holds several entries; their conditions need not be identical. Equal entries are not always repeated. Toxic doses and inconclusive results are not listed.
# Test system: BDF1 mice, P388 leukemia ip, median survival T/C
# Experiment: NCI In Vivo Anticancer Drug Screen. Data for tumor model P388 Leukemia (intraperitoneal) in B6D2F1 (BDF1) mice
# Conditions: endpoint: median survival time, higher = longer survival
# Outline: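 Vehicle-dosed animals serve as the reference; survival of compound-dosed, tumour-implanted mice is divided by it.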
# [1] = dose: 100.0 mg/kg/injection, schedule: Q04DX003 (ip), vehicle: saline with Tween-80
# [2] = dose: 6.25 mg/kg/injection, schedule: Q04DX003 (ip), vehicle: Klucel (hydroxypropylcellulose) (HPC)
# [3] = dose: 12.5 mg/kg/injection, schedule: Q04DX003 (ip), vehicle: Klucel (hydroxypropylcellulose) (HPC)
# [4] = dose: 50.0 mg/kg/injection, schedule: Q01DX009 (ip), vehicle: saline with Tween-80
# [5] = dose: 100.0 mg/kg/injection, schedule: Q01DX009 (ip), vehicle: saline with Tween-80
# [6] = dose: 200.0 mg/kg/injection, schedule: Q01DX009 (ip), vehicle: saline with Tween-80
structure (smiles),measurement,setting,value
COC(=O)C[C@](O)(CCC(C)(C)O)C(=O)O[C@@H]1C(OC)=C[C@]23CCCN2CCc2cc4c(cc2[C@H]13)OCO4,T/C,"dose: 0.22 mg/kg/injection, schedule: Q01DX009 (ip), vehicle: saline",190 % of control
same,T/C,"dose: 0.25 mg/kg/injection, schedule: Q01DX009 (ip), vehicle: saline",172 % of control and 209 % of control and 215 % of control
same,T/C,"dose: 0.25 mg/kg/injection, schedule: Q03HX016 (ip), vehicle: saline",163 % of control
same,T/C,"dose: 0.25 mg/kg/injection, schedule: Q03HX024 (ip), vehicle: saline",177 % of control
same,T/C,"dose: 0.33 mg/kg/injection, schedule: Q01DX009 (ip), vehicle: saline",204 % of control
same,T/C,"dose: 0.5 mg/kg/injection, schedule: Q01DX006 (iv), vehicle: saline",110 % of control
same,T/C,"dose: 0.5 mg/kg/injection, schedule: Q01DX009 (ip), vehicle: water",261 % of control and 294 % of control
same,T/C,"dose: 0.5 mg/kg/injection, schedule: Q03HX008 (ip), vehicle: saline",172 % of control
same,T/C,"dose: 0.5 mg/kg/injection, schedule: Q03HX016 (ip), vehicle: saline",163 % of control
same,T/C,"dose: 0.5 mg/kg/injection, schedule: Q03HX024 (ip), vehicle: saline",236 % of control
same,T/C,"dose: 1.0 mg/kg/injection, schedule: Q01DX009 (ip), vehicle: water",350 % of control and 405 % of control
same,T/C,"dose: 1.0 mg/kg/injection, schedule: Q01DX009 (sc), vehicle: saline",165 % of control
same,T/C,"dose: 1.0 mg/kg/injection, schedule: Q01DX010 (oral), vehicle: saline",115 % of control
same,T/C,"dose: 1.0 mg/kg/injection, schedule: Q03HX016 (ip), vehicle: saline",109 % of control
same,T/C,"dose: 1.0 mg/kg/injection, schedule: Q03HX024 (ip), vehicle: saline",100 % of control
same,T/C,"dose: 2.0 mg/kg/injection, schedule: Q01DX006 (iv), vehicle: saline",205 % of control
same,T/C,"dose: 2.0 mg/kg/injection, schedule: Q01DX009 (ip), vehicle: water",205 % of control
same,T/C,"dose: 2.0 mg/kg/injection, schedule: Q01DX009 (oral), vehicle: saline",210 % of control
same,T/C,"dose: 2.0 mg/kg/injection, schedule: Q01DX009 (sc), vehicle: saline",215 % of control
same,T/C,"dose: 2.0 mg/kg/injection, schedule: Q01DX010 (oral), vehicle: saline",160 % of control
same,T/C,"dose: 2.0 mg/kg/injection, schedule: Q01DX010 (sc), vehicle: saline",235 % of control
same,T/C,"dose: 2.0 mg/kg/injection, schedule: Q04DX003 (ip), vehicle: saline",154 % of control
same,T/C,"dose: 4.0 mg/kg/injection, schedule: Q01DX009 (ip), vehicle: saline",150 % of control
same,T/C,"dose: 4.0 mg/kg/injection, schedule: Q01DX010 (sc), vehicle: saline",100 % of control
same,T/C,"dose: 8.0 mg/kg/injection, schedule: Q01DX001 (ip), vehicle: saline",118 % of control
same,T/C,"dose: 8.0 mg/kg/injection, schedule: Q01DX010 (oral), vehicle: saline",90 % of control
same,T/C,"dose: 8.0 mg/kg/injection, schedule: Q04DX003 (ip), vehicle: saline",104 % of control
same,T/C,"dose: 8.0 mg/kg/injection, schedule: Q08DX002 (ip), vehicle: saline",100 % of control
COc1cc2c(c3c1c(=O)c1cc(OC(C)=O)ccc1n3C)C=CC(C)(C)O2,T/C,"dose: 10.0 mg/kg/injection, schedule: Q01DX009 (ip), vehicle: Klucel (hydroxypropylcellulose) (HPC)",100 % of control
same,T/C,"dose: 20.0 mg/kg/injection, schedule: Q01DX009 (ip), vehicle: Klucel (hydroxypropylcellulose) (HPC)",98 % of control
same,T/C,"dose: 40.0 mg/kg/injection, schedule: Q01DX009 (ip), vehicle: Klucel (hydroxypropylcellulose) (HPC)",106 % of control
O=C1c2ccccc2C(=O)c2c(O)c(N3CCCCC3)cc(O)c21,T/C,"dose: 50.0 mg/kg/injection, schedule: Q01DX009 (ip), vehicle: saline",93 % of control
same,T/C,"dose: 100.0 mg/kg/injection, schedule: Q01DX009 (ip), vehicle: saline",97 % of control
same,T/C,[1],98 % of control
same,T/C,"dose: 200.0 mg/kg/injection, schedule: Q01DX009 (ip), vehicle: saline",95 % of control
same,T/C,"dose: 200.0 mg/kg/injection, schedule: Q04DX003 (ip), vehicle: saline with Tween-80",109 % of control
same,T/C,"dose: 400.0 mg/kg/injection, schedule: Q01DX009 (ip), vehicle: saline",93 % of control
same,T/C,"dose: 400.0 mg/kg/injection, schedule: Q04DX003 (ip), vehicle: saline with Tween-80",106 % of control
O=C1C=CC(=O)N1CN1CCOCC1,T/C,"dose: 3.12 mg/kg/injection, schedule: Q01DX009 (ip), vehicle: saline",120 % of control
same,T/C,"dose: 6.25 mg/kg/injection, schedule: Q01DX009 (ip), vehicle: saline",104 % of control
same,T/C,"dose: 12.5 mg/kg/injection, schedule: Q01DX009 (ip), vehicle: saline",116 % of control
same,T/C,"dose: 18.75 mg/kg/injection, schedule: Q01DX009 (ip), vehicle: saline",111 % of control
C/C(=N/NC(=O)c1ccccc1)c1ccc(Cl)cc1Cl,T/C,"dose: 3.12 mg/kg/injection, schedule: Q04DX003 (ip), vehicle: Klucel (hydroxypropylcellulose) (HPC)",110 % of control
same,T/C,[2],105 % of control
same,T/C,[3],100 % of control
same,T/C,"dose: 18.0 mg/kg/injection, schedule: Q01DX009 (ip), vehicle: Klucel (hydroxypropylcellulose) (HPC)",100 % of control
same,T/C,"dose: 18.0 mg/kg/injection, schedule: Q04DX003 (ip), vehicle: Klucel (hydroxypropylcellulose) (HPC)",100 % of control
same,T/C,"dose: 28.0 mg/kg/injection, schedule: Q01DX009 (ip), vehicle: Klucel (hydroxypropylcellulose) (HPC)",104 % of control
same,T/C,"dose: 28.0 mg/kg/injection, schedule: Q04DX003 (ip), vehicle: Klucel (hydroxypropylcellulose) (HPC)",100 % of control
same,T/C,"dose: 40.0 mg/kg/injection, schedule: Q04DX003 (ip), vehicle: Klucel (hydroxypropylcellulose) (HPC)",104 % of control
same,T/C,"dose: 60.0 mg/kg/injection, schedule: Q04DX003 (ip), vehicle: Klucel (hydroxypropylcellulose) (HPC)",110 % of control
same,T/C,"dose: 90.0 mg/kg/injection, schedule: Q04DX003 (ip), vehicle: Klucel (hydroxypropylcellulose) (HPC)",110 % of control
Clc1ccc(N=Cc2cccs2)cc1,T/C,[4],96 % of control
same,T/C,[5],102 % of control
same,T/C,[6],88 % of control
Nc1nc(N)c2cc(S(=O)(=O)c3ccccc3)ccc2n1,T/C,[4],92 % of control
COc1cc(NCCN2CCN(CCNc3cc(OC)cc4cccnc34)CC2)c2ncccc2c1,T/C,[4],113 % of control
same,T/C,[5],110 % of control
same,T/C,[6],94 % of control
CCCCCCCCCCCCCC[n+]1ccccc1,T/C,"dose: 16.0 micrograms/kg/injection, schedule: Q01DX009 (ip), vehicle: saline with Tween-80",87 % of control
same,T/C,"dose: 32.0 micrograms/kg/injection, schedule: Q01DX009 (ip), vehicle: saline with Tween-80",100 % of control
same,T/C,"dose: 62.5 micrograms/kg/injection, schedule: Q01DX009 (ip), vehicle: saline",113 % of control
same,T/C,"dose: 62.5 micrograms/kg/injection, schedule: Q01DX010 (ip), vehicle: saline",115 % of control
same,T/C,"dose: 125.0 micrograms/kg/injection, schedule: Q01DX009 (ip), vehicle: saline",122 % of control
same,T/C,"dose: 250.0 micrograms/kg/injection, schedule: Q01DX010 (ip), vehicle: saline",110 % of control
CCCCCCC(=O)/C=C/c1ccccc1OC,T/C,[4],90 % of control
same,T/C,[5],99 % of control
same,T/C,[6],117 % of control
O=C1C(Br)=C(Br)C(=O)C1(Br)Br,T/C,"dose: 8.25 mg/kg/injection, schedule: Q01DX009 (ip), vehicle: saline with Tween-80",100 % of control
same,T/C,"dose: 12.5 mg/kg/injection, schedule: Q01DX009 (ip), vehicle: saline with Tween-80",109 % of control
same,T/C,"dose: 18.75 mg/kg/injection, schedule: Q01DX009 (ip), vehicle: saline with Tween-80",113 % of control
CCOC(=O)c1ccc(NCc2cccc([N+](=O)[O-])c2)cc1,T/C,"dose: 100.0 mg/kg/injection, schedule: Q01DX001 (ip), vehicle: Klucel (hydroxypropylcellulose) (HPC)",115 % of control
same,T/C,"dose: 200.0 mg/kg/injection, schedule: Q01DX001 (ip), vehicle: Klucel (hydroxypropylcellulose) (HPC)",100 % of control
same,T/C,"dose: 400.0 mg/kg/injection, schedule: Q01DX001 (ip), vehicle: Klucel (hydroxypropylcellulose) (HPC)",93 % of control
N#Cc1nc2c(nc1C#N)-c1ccccc1C2=O,T/C,"dose: 6.0 mg/kg/injection, schedule: Q01DX009 (ip), vehicle: Klucel (hydroxypropylcellulose) (HPC)",100 % of control
same,T/C,[2],100 % of control
same,T/C,"dose: 12.0 mg/kg/injection, schedule: Q01DX009 (ip), vehicle: Klucel (hydroxypropylcellulose) (HPC)",107 % of control
same,T/C,[3],108 % of control
same,T/C,"dose: 25.0 mg/kg/injection, schedule: Q04DX003 (ip), vehicle: Klucel (hydroxypropylcellulose) (HPC)",104 % of control
CCOC(=O)/C(=C(/N)C1OC(COC(c2ccccc2)(c2ccccc2)c2ccccc2)C2OC(C)(C)OC12)C1CC(=O)N(C)C1=O (configuration not stated),T/C,[4],99 % of control
same,T/C,[5],90 % of control
O=C([O][Hg][CH2]C1COC([CH2][Hg][O]C(=O)c2ccccc2)CO1)c1ccccc1 (configuration not stated),T/C,[1],113 % of control
